These results are taken from patent US12433892B2, “Compositions and methods of treatment for neurological disorders comprising depression” (Gliapharm SA, priority 2018, dated 2025).

The subject of experiment [1] is astrocytes. The experiment is described as follows: Intracellular glycogen quantification. The settings on record: Prestwick hits; 10 uM, 3 h. It counts as cell-based, mouse. The procedure:
For glycogen dosage, a protein dosage was first performed in order to assess whether harvested astrocytes from primary cell cultures yielded enough and equivalent amounts of proteins comparing each replicate, and to ensure that the obtained differences in glycogen quantities were due to drug action and not to inner protein quantities.
Astrocytes used for these dosages were previously grown in 6-well plates for 17 days and stimulated with Vehicle (DMSO) or drug of interest (1 μM to 100 μM) for 180 min, at 37° C. 5% CO2/95% air in D5030 complete medium. Medium was removed and replaced with 600 μl of 30 mM Tris HCl, and stored at −20° C.
Proteins were dosed using the micro BCA Protein Assay kit (Thermo Scientific), as described in the manufacturer's instructions. Briefly, thawed cells were sonicated and 5 μl aliquots were placed in a transparent 96-well plate, to which we added 25 μl 30 mM Tris HCl, 70 μl H2O and 100 μl of a BCA mix (made as described in manufacturer's guidelines). After a 120 min-incubation at 37° C., absorbance was measured with Safire 2 spectrophotometer at a wavelength of 562 nm, and protein quantities were determined from a standard curve of Bovine Serum Albumin (BSA).
Glycogen was quantified using a 250 μl-aliquot of the same stimulated, thawed, and sonicated cells. After an incubation period of 30 min at 90° C. and 400 rpm, 28 μl of an acetic acid/sodium acetate (both from Sigma) 0.1M pH 4.6 buffer was added to each aliquot, which was then separated in two. Each split aliquot received whether 5 μl of amyloglucosidase (Roche) or 5 μl H2O, and all cell solutions were incubated for 120 min in a shaking 37° C.-waterbath. After a centrifugation at 16'000 G for 5 min, 20 μl of supernatant were placed 96-well plate, to which 150 μl of a mix containing 0.67 mM ATP (Roche), 0.67 mM NADP (Roche), 1.8% hexokinase/glucose-6-phosphate dehydrogenase (Roche) and 0.1M Tris Buffer-HCl/3.3 mM magnesium (Fluka)/pH 8.1 buffer was added. Fluorescence was measured with Safire 2 spectrophotometer (340 nm excitation/440 nm emission). Glycogen concentration was obtained by subtracting glucose value of samples with amyloglucosidase to samples without amyloglucosidase, and were expressed relative to the amount of proteins previously determined.
Levels of intracellular glycogen in astrocytes were measured at 3 h after stimulation with 20 hits from the Prestwick library (10 μM each), as shown in FIG. 2. n=6-10; Ctrl pos. is glutamate (0.5 mM). Statistical analysis consisted in ANOVA followed by Fisher LSD post-hoc test for pair-wise comparisons.
(§1) Statistical analysis consisted in ANOVA followed by Fisher LSD post-hoc test for pair-wise comparisons.

The subject of experiment [2] is astrocytes. In words: Extracellular lactate quantification. The class given is cell-based, mouse. Further details: Score_LACTATE / Score Lact.: scale not given here. The following applies: Appendix II; for EC50: Mus musculus, Astrocyte, lactate secretion. Here is the method: Primary cultures of cerebrocortical astrocytes were obtained from 1-2-day-old OF1 mouse pups (Charles River Laboratories). Briefly, cortices were isolated and minced in small pieces under a dissecting microscope. The cells were incubated for 30 min at 37° C. in a solution containing 20 U/ml of papain enzyme (Worthington Biochemical), L-cysteine 1 mM (Sigma), and 10 kU/ml DNase I (Worthington Biochemical) for an enzymatic dissociation. Papain activity was stopped by the addition of fetal calf serum (FCS) to the solution, and a single-cell suspension was then obtained by mechanical dissociation, which consisted in cells trituration in a DMEM (D7777, Sigma-Aldrich) medium (supplemented with 44 mm NaHCO3, and 10 ml/L antibiotic/antimycotic solution) containing 10% FCS. The cells were seeded at an average density of 6×10^4 cells/cm^2 in poly-D-lysine-coated 96, 12 or 6-well culture plates, depending on their use, and incubated at 37° C. in a humidified atmosphere containing 5% CO2/95% air. Culture medium was renewed twice per week. Cells were stimulated and harvested between DIV14 and DIV17, when confluence and cell growth were optimal.
Secretion of L-lactate was determined in the extracellular medium of 96-well plated astrocytes after 90 min stimulation (at 37° C., in 5% CO2/95% air conditions) with the drug of interest. The stimulation medium was composed of D5030 medium (completed with D-glucose 5 mM and 44 mM sodium bicarbonate) for 90 min in concentrations ranging from 0 to 100 μM.
Briefly, 200 μl of a Glycine (Sigma)-Semicarbazide (Acros) 0.2M pH 10 buffer containing 3 mM NAD (Roche) and LDH 14 U/ml (Roche) was added to each well of a 96-well plate containing 30 μl aliquots complemented with 20 μl fresh complete D5030 medium. Samples were incubated at 37° C. for 1 h. After samples cooled down at room temperature, the fluorescence intensity (340 nm excitation/450 nm emission) that represents the amount of NADH produced was measured, and lactate concentration values were determined from a standard curve of L-lactate.
as §1
Levels of lactate secreted by astrocytes were measured in the extracellular medium at 90 min after stimulation with hits (molecules) from the CDC54K library.

The structures appear in SMILES notation. Structures can show the parent of a compound that is named as a salt.

Consider `CC[N+](CC)(CC(=O)Nc1c(C)cccc1C)Cc1ccccc1` [Denatonium benzoate], for which the “Glycogen (statistical significance of glycogen degradation)” value in experiment [1] is on record as “** (**p<0.01)”.

Take `Clc1ccc2c(c1)CCc1cccnc1C2=C1CCNCC1` [Desloratadine]: the “Glycogen (statistical significance of glycogen degradation)” value in experiment [1] is given as “* (*p<0.05)”.

With `CCCCOc1cc(C(=O)NCCN(CC)CC)c2ccccc2n1` [Dibucaine], the “Glycogen (statistical significance of glycogen degradation)” value in experiment [1] is reported as “* (*p<0.05)”.

In general, EC50 refers to the concentration at which the effect is half-maximal. Take `Cc1cccc(NS(=O)(=O)c2ccc(Cl)c(Cl)c2)c1` [F3394-1364]: in experiment [2], the “Score Lact.” value is 0.33 and a half-maximal response (EC50) required 5.87 µM.

Take `FC(F)(F)c1cccc(CNc2ncnc3[nH]ncc23)c1` [F5285-0069]: the “Score Lact.” value in experiment [2] was found to be 0.36.

Take `CCc1ccc(S(=O)(=O)Nc2cc3c(cc2C)n(C)c(=O)n3C)cc1` [G433-0293]: in experiment [2], the “Score Lact.” value came to 0.74.

Take `COc1ccc(NS(=O)(=O)c2ccc(N3CCCCS3(=O)=O)cc2)cc1` [G508-0015]: the “Score Lact.” value in experiment [2] is reported as 0.67.

As to `CCNc1cc(C)nc(Nc2ccc(NC(=O)Cc3ccccc3)cc2)c1` [G869-0064], in experiment [2], the “Score Lact.” value was determined as 0.54 and the response was half-maximal at 4.26 µM (EC50).

As for `CCNc1cc(C)nc(Nc2ccc(NC(=O)c3cccs3)cc2)n1` [G869-0071], the “Score Lact.” value in experiment [2] is listed as 0.63.

As to `CC(COc1ccccc1)NC(C)C(O)c1ccc(O)cc1` (stereo not drawn) [Isoxsuprine hydrochloride], the “Glycogen (statistical significance of glycogen degradation)” value in experiment [1] is recorded as “** (**p<0.01)”.

As to `CC(=O)N1CC(C)(C)c2cc(S(=O)(=O)Nc3ccc(F)cc3C)ccc21` [L302-0181], in experiment [2], the “Score Lact.” value is listed as 0.52.

Turning to `Cn1c(=O)c(N2CCC(NC(=O)Nc3cccc(Cl)c3)CC2)nc2ccccc21` [L932-0267], in experiment [2], the “Score Lact.” value is reported as 0.53.

Consider `CCc1ccc(NS(=O)(=O)c2c(C)c(-c3nnc(C4CC4)o3)n(C)c2C)cc1` [M950-1515], for which the “Score Lact.” value in experiment [2] worked out at 0.67.

Consider `CC(C)[N+](C)(CCOC(=O)C1c2ccccc2Oc2ccccc21)C(C)C` [Propantheline bromide], for which, in experiment [1], the “Glycogen (statistical significance of glycogen degradation)” value is “**** (****p<0.0001)”.

For the molecule `Cc1cc(/C=C/c2ccc3cc(N(C)C)ccc3[n+]2C)c(C)n1-c1ccccc1` [Pyrvinium pamoate], the “Glycogen (statistical significance of glycogen degradation)” value in experiment [1] is listed as “**** (****p<0.0001)”.

On to `CCOc1ccc(C2(O)C(C)[N+]3=C(CCC3)N2c2ccc(OC)cc2)cc1.[Br-]` (stereo not drawn) [T0500-6629], for which the “Score Lact.” value in experiment [2] is recorded as 0.61.

On to `N#Cc1cc(C(=O)c2cc(F)ccc2O)cn(-c2ccc(F)c(Cl)c2)c1=O` [T0516-6894], for which the “Score Lact.” value in experiment [2] is recorded as 0.38.

Take `Cc1sc2nc(CNc3nc4ccccc4c(=O)n3C)[nH]c(=O)c2c1C` [T0517-2783]: in experiment [2], the “Score Lact.” value stood at 0.46 and the midpoint of the response, the EC50, lay at 3.84 µM.

As to `COc1ccc(NS(=O)(=O)c2cccc(NC(=O)c3cccs3)c2)cc1` [T0517-4117], the “Score Lact.” value in experiment [2] is 0.91.

As to `O=c1[nH]nc(NCCOc2ccc(Br)cc2)n1C1CC1` [T533260], in experiment [2], the “Score Lact.” value stood at 0.53 and the concentration for a half-maximal effect (EC50) is 6.84 µM.

`COc1ccc(NS(=O)(=O)c2cccc(NC(=O)c3ccccc3)c2)cc1` [T5274959]: the “Score Lact.” value in experiment [2] came out at 0.68.

With `CC(C)S(=O)(=O)c1ccc(NS(=O)(=O)c2ccc(Cl)cc2)cc1` [T5311200], in experiment [2], the “Score Lact.” value is 0.56 and the half-maximal effective concentration (EC50) turned out to be 6.02 µM.

Regarding `CCC(C)NS(=O)(=O)c1ccc(Oc2ccc(C)cc2)cc1` (stereo not drawn) [T5400234], in experiment [2], the “Score Lact.” value turned out to be 0.33.

Take `O=C(Nc1ccc(F)c(F)c1)c1ccc(Cl)c(S(=O)(=O)N2CCCC2)c1` [T5450239]: in experiment [2], the “Score Lact.” value was found to be 0.67.

On to `CCN(CC)S(=O)(=O)c1ccc(S(=O)(=O)Nc2ccc(C)cc2C)cc1` [T5453923], for which, in experiment [2], the “Score Lact.” value is on record as 0.66 and the response was half-maximal at 5.36 µM (EC50).

`CCn1c(=O)c(C)nc2cc(C(=O)N(Cc3ccc(F)cc3)C3CC3)ccc21` [T5586091]: the “Score Lact.” value in experiment [2] amounted to 0.45.

Take `Cc1nc2ccc(NC(=O)c3ccc4c(c3)CC(C)N4S(C)(=O)=O)cc2[nH]1` (stereo not drawn) [T5606387]: in experiment [2], the “Score Lact.” value is 0.38 and the EC50 was found to be 4.61 µM.

For the molecule `N#Cc1ccc(S(=O)(=O)Nc2ccccc2C(=O)NCc2ccccc2)cc1` [T5673322], the “Score Lact.” value in experiment [2] amounted to 0.63.

Consider `CCCC(=O)Nc1nc(-c2ccc3c(c2)CCO3)cs1` [T5691896], for which the “Score Lact.” value in experiment [2] amounted to 0.38.

For `Cc1ccc(-c2c[nH]c(NC(=O)c3ccncc3)n2)cc1[N+](=O)O` [T5694329], in experiment [2], the “Score Lact.” value was 0.47 and the EC50 stood at 1.59 µM.

With `COc1ccc(C(C)NC(=O)c2cc(=O)c3ccccc3o2)cc1F` (stereo not drawn) [T5710343], in experiment [2], the “Score Lact.” value is given as 0.67.

In the case of `CCc1ccccc1NC(=O)CN(C)c1ncnc2c1oc1ccccc12` [T5712071], the “Score Lact.” value in experiment [2] was 0.8.

With `Cc1sc2nc(CSc3nc4ccccc4[nH]3)nc(N)c2c1C` [T5719257], the “Score Lact.” value in experiment [2] was determined as 0.74.

Turning to `COc1ccccc1NC(=O)CO/N=C(/N)c1cccc(C(F)(F)F)c1` [T5770640], the “Score Lact.” value in experiment [2] came to 0.55.

As for `COc1cc(C)c(NC(=O)Cc2ccc(Cl)c(Cl)c2)cc1OC` [T5783794], the “Score Lact.” value in experiment [2] is 0.44.

With `c1nc(NCc2ccc3c(c2)OCO3)c2sccc2n1` [T5787526], in experiment [2], the “Score Lact.” value turned out to be 0.71.

For the molecule `CC(=O)Nc1cccc(NC(=O)CSc2nc(C)c(C)n2C2CCCC2)c1` [T5788339], the “Score Lact.” value in experiment [2] amounted to 0.75.

Take `c1ccc(CN2CCOCC2)c(CNc2ncnc3ccsc23)c1` [T5790476]: the “Score Lact.” value in experiment [2] came out at 0.79.

With `COc1cccc(C(CNc2nc(C(F)(F)F)nc3ccccc23)N(C)C)c1` (stereo not drawn) [T5800607], in experiment [2], the “Score Lact.” value worked out at 063.

For `CC(C)(C)NS(=O)(=O)c1cccc(C(=O)Nc2ccncc2)c1` [T5827594], the “Score Lact.” value in experiment [2] turned out to be 0.71.

On to `O=C(Nc1cccc([N+](=O)[O-])c1)c1ccc(S(=O)(=O)NCC2CCCO2)cc1` (stereo not drawn) [T6010789], for which, in experiment [2], the “Score Lact.” value is reported as 1.31 and the 50% effective concentration (EC50) came out at 5.82 µM.

For the molecule `O=S(=O)(Nc1ccc(F)cc1)c1ccc(F)c(Cl)c1` [T6947848], in experiment [2], the “Score Lact.” value is 0.98 and the half-maximal effective concentration (EC50) was determined as 5.5 µM.

`Cc1c(C)c2c(c(C)c1O)CCC(C)(COc1ccc(CC3SC(=O)NC3=O)cc1)O2` (stereo not drawn) [Troglitazone]: in experiment [1], the “Glycogen (statistical significance of glycogen degradation)” value was “*** (***p<0.001)”.

For the molecule `CS(=O)(=O)NC1CCN(C(=O)c2ccc(F)cc2)C1` (stereo not drawn) [Z603-8037], the “Score Lact.” value in experiment [2] was 0.32.
